Assay results: patent US20230380424A1, “IMPROVEMENTS IN OR RELATING TO COPPER BASED PESTICIDES” (AGRONATURALIS LTD, priority 2020, published 2023)

How the values were obtained:
[1] = Surface tension of spray compositions (Kruss DSA30 Drop shape analyser); assay type: physicochemical; conditions: composition with 15 ppm copper hydroxide
Method: (§1) The surface wetting and deposition of copper from spray compositions was determined by comparing compositions containing 15 ppm copper hydroxide with varying amounts of sodium lauryl sulfate (Agnique SLS) on its own, varying amounts of sodium dioctyl sulfosuccinate (Geropon SDS) on its own and various mixtures of the two surfactants.
(§2) The measurements were made using a Kruss DSA30 Drop shape analyser.

[2] = Contact angle of spray compositions (Kruss DSA30 Drop shape analyser); assay type: physicochemical; conditions: composition with 15 ppm copper hydroxide
Method: as §1
Contact angles of the same compositions were also measured.
as §2

SMILES	surface tension (actual) ([1]; 5 ppm surfactant) [mN/m]	surface tension (actual) ([1]; 20 ppm surfactant) [mN/m]	surface tension (actual) ([1]; 50 ppm surfactant) [mN/m]	surface tension (actual) ([1]; 125 ppm surfactant) [mN/m]	surface tension (actual) ([1]; 250 ppm surfactant) [mN/m]	contact angle trend with concentration [2]	contact angle ([2]; across all rates) [°]
CCCCCCCCOC(=O)CC(C(=O)OCCCCCCCC)S(=O)(=O)O.[Na] (stereo not drawn) [Geropon SDS, sodium dioctyl sulfosuccinate]	70.0	55.5	49.6	47.6	43.9	stepwise reduction from 5 ppm onwards	
CCCCCCCCCCCCOS(=O)(=O)[O-].[Na+] [Agnique SLS, sodium lauryl sulfate]	70.4	70.5	67.3	64.7	64.6		> 100
